37 molecules from patent publication US4115385A, “Antibacterial 3-(5-tetrazolyl) penam compounds” (Pfizer Inc., priority 1977, dated 1978) can be followed below.

≈ marks a conversion by molar mass, not a printed value.

One experiment relates to Streptococcus pyogenes. Kind of experiment: In vitro minimum inhibitory concentration (MIC) vs. Strep. pyogenes. It is filed as cell-based. Particulars: Streptococcus pyogenes, read-out: MIC vs. Strep. pyogenes. The method, boiled down:
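Broth inoculated with bacteria and test antibiotic, incubated overnight and read visually; MIC is the lowest concentration preventing turbidity. Test preparations also contain some of the corresponding tetrazole tautomer.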
The MIC is the smallest concentration in the dilution series that meets the test's criterion for growth inhibition. Regarding `CC1(C)S[C@@H]2[C@H](NC(=O)[C@H](NS(=O)(=O)c3ccccc3)c3ccc(O)cc3)C(=O)N2[C@H]1c1nn[nH]n1` [6-(D-2-[Benzenesulfonamido]-2-[p-hydroxyphenyl]acetamido)-2,2-dimethyl-3-(5-tetrazolyl)penam], the MIC is < 0.1 µg/mL. On the same count and under the same terms, the value for `CN(C)C=N[C@@H](C(=O)N[C@@H]1C(=O)N2[C@@H]1SC(C)(C)[C@@H]2c1nnn[nH]1)c1ccc(O)cc1` [6-(D-2-[Dimethylaminomethyleneamino]-2-[p-hydroxyphenyl]-acetamido)-2,2-dimethyl-3-(5-tetrazolyl)-penam] was < 0.1 µg/mL; that for `CN(C)C=N[C@@H](C(=O)N[C@@H]1C(=O)N2[C@@H]1SC(C)(C)[C@@H]2c1nnn[nH]1)c1ccccc1` [6-(D-2-[Dimethylaminomethyleneamino]-2-phenylacetamido)-2,2-dimethyl-3-(5-tetrazolyl)penam] was < 0.1 µg/mL; that for `CCCS(=O)(=O)N[C@@H](C(=O)N[C@@H]1C(=O)N2[C@@H]1SC(C)(C)[C@@H]2c1nn[nH]n1)c1ccc(O)cc1` [6-(D-2-[Propanesulfonamido]-2-[p-hydroxyphenyl]acetamido-)-2,2-dimethyl-3-(5-tetrazolyl)penam] was 0.1 µg/mL (≈ 0.202 µM). As to `CC1(C)S[C@@H]2[C@H](NC(=O)[C@H](N)c3ccc(O)c(Cl)c3)C(=O)N2[C@H]1c1nnn[nH]1` [6-(D-2-amino-2-[3-chloro-4-hydroxyphenyl]acetamido)-2,2-dimethyl-3-(5-tetrazolyl)penam], the MIC was determined as 0.1 µg/mL (≈ 0.236 µM). On the same count and under the same terms, the value for `CC1(C)S[C@@H]2[C@H](NC(=O)[C@H](NC(=O)CN)c3ccccc3)C(=O)N2[C@H]1c1nn[nH]n1` [D-2-(2-aminoacetamido)-2-phenylacetyl, 6-(D-2-[2-Aminoacetamido]-2-phenylacetamido)-2,2-dimethyl-3-(5-tetrazolyl)penam] was < 0.1 µg/mL; that for `CC1(C)S[C@@H]2[C@H](NC(=O)[C@H](NC(=O)CCl)c3ccccc3)C(=O)N2[C@H]1c1nn[nH]n1` [D-2-(2-chloroacetamido)-2-phenylacetyl, 6-(D-2-[2-Chloroacetamido]-2-phenylacetamido)-2,2-dimethyl-3-(5-tetrazolyl)penam] was < 0.1 µg/mL. Still for that read-out and setting: the value for `CC1(C)S[C@@H]2[C@H](NC(=O)[C@H](NC(=O)c3ccco3)c3ccccc3)C(=O)N2[C@H]1c1nnn[nH]1` [D-2-(2-furancarboxamido)-2-phenylacetyl] was 0.1 µg/mL (≈ 0.214 µM); that for `CC1(C)S[C@@H]2[C@H](NC(=O)[C@H](NC(=O)Cc3ccccc3)c3ccccc3)C(=O)N2[C@H]1c1nnn[nH]1` [D-2-(2-phenylacetamido)-2-phenylacetyl] was < 0.1 µg/mL. Consider `CC1(C)S[C@@H]2[C@H](NC(=O)[C@H](NC(=O)NC(=O)c3ccco3)c3ccccc3)C(=O)N2[C@H]1c1nn[nH]n1` [D-2-(3-[2-furoyl]ureido)-2-phenylacetyl, 6-(D-2-[3-(2-Furoyl)ureido]-2-phenylacetamido)-2,2-dimethyl-3-(5-tetrazolyl)penam], for which the minimal inhibitory concentration (MIC) is < 0.1 µg/mL.

In the case of `Cc1ccc(NC(=O)N[C@@H](C(=O)N[C@@H]2C(=O)N3[C@@H]2SC(C)(C)[C@@H]3c2nnn[nH]2)c2ccccc2)cc1` [D-2-(3-[p-tolyl]ureido)-2-phenylacetyl], the MIC was < 0.1 µg/mL. With `CC1(C)S[C@@H]2[C@H](NC(=O)[C@H](NC(=O)CCN)c3ccccc3)C(=O)N2[C@H]1c1nn[nH]n1` [D-2-(3-aminopropionamido)-2-phenylacetyl, 6-(D-2-[3-Aminopropionamido]-2-phenylacetamido)-2,2-dimethyl-3-(5-tetrazolyl)penam], the MIC is < 0.1 µg/mL. Consider `CC1(C)S[C@@H]2[C@H](NC(=O)[C@H](NC(=O)NC(=N)N)c3ccccc3)C(=O)N2[C@H]1c1nnn[nH]1` [D-2-(3-guanylureido)-2-phenylacetyl, 6-(D-2-[3-Guanylureido]-2-phenylacetamido)-2,2-dimethyl-3-(5-tetrazolyl)penam], for which the MIC was < 0.1 µg/mL. `CC1(C)S[C@@H]2[C@H](NC(=O)[C@H](NC(=S)Nc3ccccc3)c3ccccc3)C(=O)N2[C@H]1c1nnn[nH]1` [D-2-(3-phenylthioureido)-2-phenylacetyl, 6-(D-2-[3-Phenylthioureido]-2-phenylacetamide)-2,2-dimethyl-3-(5-tetrazol)penam]: the MIC was < 0.1 µg/mL. For the molecule `CC1(C)S[C@@H]2[C@H](NC(=O)[C@H](NC(=O)Nc3ccccc3)c3ccccc3)C(=O)N2[C@H]1c1nnn[nH]1` [D-2-(3-phenylureido)-2-phenylacetyl], the MIC was < 0.1 µg/mL. Same read-out and setting: as for `CC1(C)S[C@@H]2[C@H](NC(=O)[C@H](NC(=O)c3ccc(N)cc3)c3ccccc3)C(=O)N2[C@H]1c1nn[nH]n1` [D-2-(4-aminobenzamido)-2-phenylacetyl, 6-(D-2-[4-Aminobenzamido]-2-phenylacetamido)-2,2-dimethyl-3-(5-tetrazolyl)penam], the figure is < 0.1 µg/mL; as for `CC1(C)S[C@@H]2[C@H](NC(=O)[C@H](NC(=O)c3ccccc3)c3ccccc3)C(=O)N2[C@H]1c1nnn[nH]1` [D-2-(benzamido)-2-phenylacetyl], < 0.1 µg/mL. On the same count and under the same terms, as for `CC1(C)S[C@@H]2[C@H](NC(=O)[C@H](NC(=O)NC(N)=O)c3ccccc3)C(=O)N2[C@H]1c1nnn[nH]1` [D-2-allophanamido-2-phenylacetyl, 6-(D-2-Allophanamido-2-phenylacetamido)-2,2-dimethyl-3-(5-tetrazolyl)penam], the figure is < 0.1 µg/mL; as for `CC1(C)S[C@@H]2[C@H](NC(=O)[C@H](N)C3=CCC=CC3)C(=O)N2[C@H]1c1nnn[nH]1` [D-2-amino-2-(1,4-cyclohexadienyl)acetyl, 6-(D-2-Amino-2-[1,4-cyclohexadienyl]acetamido)-2,2-dimethyl-3-(5-tetrazolyl)penam], < 0.1 µg/mL.

Still in this experiment, the particulars now being: Streptococcus pyogenes; Table II; two-fold serial dilution, Brain-Heart Infusion broth, overnight; read-out: MIC vs. Strep. pyogenes.
On to `CC1(C)S[C@@H]2[C@H](NC(=O)[C@H](NC(=O)C3OC3C(=O)O)c3ccccc3)C(=O)N2[C@H]1c1nnn[nH]1` (stereo partly drawn) [6-(D-2-[4-Carboxy-2,3-propionamido]-2-phenylacetamido)-2,2-dimethyl-3-(5-tetrazol-5-yl)penam], for which the MIC amounted to 0.2 µg/mL (≈ 0.41 µM). Same read-out and setting: as for `CC1(C)S[C@@H]2[C@H](NC(=O)[C@H](NC(=O)COCC(=O)O)c3ccccc3)C(=O)N2[C@H]1c1nnn[nH]1` [6-(D-2-[Carboxymethoxy]acetamido-2-phenylacetamido)-2,2-dimethyl-3-(5-tetrazolyl)penam], the figure is 0.2 µg/mL (≈ 0.409 µM). As to `CN=C(NC)SCC(=O)N[C@@H](C(=O)N[C@@H]1C(=O)N2[C@@H]1SC(C)(C)[C@@H]2c1nn[nH]n1)c1ccccc1` [6-(D-2-[N,N'-dimethylamidinothio)acetamido]-2-phenylacetamido)-2,2-dimethyl-3-(5-tetrazolyl)penam], the MIC amounted to 0.004 µg/mL (≈ 0.00773 µM). The same measure, in the same setting: as for `CC1(C)S[C@@H]2[C@H](NC(=O)[C@H](NC(=O)c3ccc(NC(=N)N)cc3)c3ccccc3)C(=O)N2[C@H]1c1nn[nH]n1` [6-(D-2-[p-Guanidinobenzamido]-2-phenylacetamido)-2,2-dimethyl-3-(5-tetrazolyl)penam], the figure is 1.56 µg/mL (≈ 2.92 µM). Consider `CC1(C)S[C@@H]2[C@H](NC(=O)[C@H](NC(=O)CN=[N+]=[N-])c3ccccc3)C(=O)N2[C@H]1c1nnn[nH]1` [D-2-(2-azicoacetamido)-2-phenylacetyl], for which the MIC is 0.2 µg/mL (≈ 0.438 µM).

In the case of `CC1(C)S[C@@H]2[C@H](NC(=O)[C@H](NC(=O)CC#N)c3ccccc3)C(=O)N2[C@H]1c1nnn[nH]1` [D-2-(2-cyanoacetamido)-2-phenylacetyl], the MIC came out at 0.004 µg/mL (≈ 0.00908 µM). As for `CC1(C)S[C@@H]2[C@H](NC(=O)[C@H](NC(=O)COc3ccccc3)c3ccccc3)C(=O)N2[C@H]1c1nnn[nH]1` [D-2-(2-phenoxyacetamido)-2-phenylacetyl], the MIC stood at 0.004 µg/mL (≈ 0.00788 µM). Still for that read-out and setting: as for `CNC(=O)N[C@@H](C(=O)N[C@@H]1C(=O)N2[C@@H]1SC(C)(C)[C@@H]2c1nnn[nH]1)c1ccccc1` [D-2-(3-methylureido)-2-phenylacetyl], the figure is 50 µg/mL (≈ 116 µM). For `CC1(C)S[C@@H]2[C@H](NC(=O)[C@H](NC(=O)c3ccc([N+](=O)[O-])cc3)c3ccccc3)C(=O)N2[C@H]1c1nn[nH]n1` [D-2-(4-nitrobenzamido)-2-phenylacetyl, 6-(D-2-[4-nitrobenzamido]-2-phenylacetamido)-2,2-dimethyl-3-(5-tetrazolyl)penam], the MIC amounted to 0.004 µg/mL (≈ 0.00765 µM).

Consider `CC(=O)C(=O)N[C@@H](C(=O)N[C@@H]1C(=O)N2[C@@H]1SC(C)(C)[C@@H]2c1nnn[nH]1)c1ccccc1` [D-2-(acetylformamido)-2-phenylacetyl], for which the MIC was determined as 50 µg/mL (≈ 113 µM).

On to `CC1(C)S[C@@H]2[C@H](NC(=O)[C@H](NC(=O)C(=O)c3ccccc3)c3ccccc3)C(=O)N2[C@H]1c1nnn[nH]1` [D-2-(benzoylformamido)-2-phenylacetyl], for which the MIC was 25 µg/mL (≈ 49.5 µM).

Turning to `CCCC(=O)N[C@@H](C(=O)N[C@@H]1C(=O)N2[C@@H]1SC(C)(C)[C@@H]2c1nnn[nH]1)c1ccccc1` [D-2-(butyramido)-2-phenylacetyl], the minimum inhibitory concentration (MIC) worked out at 0.39 µg/mL (≈ 0.879 µM). Same read-out and setting: the value for `CCS(=O)(=O)N[C@@H](C(=O)N[C@@H]1C(=O)N2[C@@H]1SC(C)(C)[C@@H]2c1nn[nH]n1)c1ccccc1` [D-2-(ethanesulfonamido)-2-phenylacetyl] was 0.39 µg/mL (≈ 0.838 µM); that for `CCOC(=O)N[C@@H](C(=O)N[C@@H]1C(=O)N2[C@@H]1SC(C)(C)[C@@H]2c1nnn[nH]1)c1ccccc1` [D-2-(ethoxycarbonylamino)-2-phenylacetyl] was 6.25 µg/mL (≈ 14 µM); that for `CC(=O)C(C(=O)NC1C(=O)N2C(c3nnn[nH]3)C(C)(C)S[C@H]12)c1ccccc1` (stereo partly drawn) [D-2-acetyl-2-phenylacetyl, 6-(2-Acetyl-2-phenylacetamido)-2,2-dimethyl-3-(5-tetrazolyl)penam] was 0.004 µg/mL (≈ 0.00999 µM).

`CC1(C)S[C@@H]2[C@H](NC(=O)[C@H](N)c3ccco3)C(=O)N2[C@H]1c1nnn[nH]1` [D-2-amino-2-(2-furyl)acetyl]: the MIC stood at 0.39 µg/mL (≈ 1.07 µM).

Still in this experiment, the particulars now being: Streptococcus pyogenes; Table IV; read-out: MIC vs. Strep. pyogenes.
Take `CN(C)C=N[C@@H]1C(=O)N2[C@@H]1SC(C)(C)[C@@H]2c1nnn[nH]1` [6-([Dimethylamino]methyleneamino)-2,2-dimethyl-3-(5-tetrazolyl)penam]: the MIC came to 12.5 µg/mL (≈ 42.3 µM).

Turning to `CC1(C)S[C@@H]2[C@H](N=CN3CCCCCC3)C(=O)N2[C@H]1c1nnn[nH]1` [6-([Hexahydro-1-azepinyl]methyleneamino)-2,2-dimethyl-3-(5-tetrazolyl)penam], the MIC stood at 50 µg/mL (≈ 143 µM).
